In US4638000A, “Condensed seven-membered ring compounds, their production and use” (Takeda Chemical Industries, Ltd., priority 1984, dated 1987):
Where a name gives a salt, the structure may show the parent alone.

Assays:
[1] = molecular target: T1, Angiotensin I Converting Enzyme (ACE) (Oryctolagus cuniculus, UniProt P12822); assay: Inhibition of Angiotensin I Converting Enzyme (ACE), HHL substrate, modified Cushman method; type: biochemical; conditions: compound concentration 0.1 μM; substrate hippuryl-L-histidyl-L-leucine; 37° C., 1 hour; read-out: ACE inhibitory activity (%)
T1 sequence (P12822 34-1310): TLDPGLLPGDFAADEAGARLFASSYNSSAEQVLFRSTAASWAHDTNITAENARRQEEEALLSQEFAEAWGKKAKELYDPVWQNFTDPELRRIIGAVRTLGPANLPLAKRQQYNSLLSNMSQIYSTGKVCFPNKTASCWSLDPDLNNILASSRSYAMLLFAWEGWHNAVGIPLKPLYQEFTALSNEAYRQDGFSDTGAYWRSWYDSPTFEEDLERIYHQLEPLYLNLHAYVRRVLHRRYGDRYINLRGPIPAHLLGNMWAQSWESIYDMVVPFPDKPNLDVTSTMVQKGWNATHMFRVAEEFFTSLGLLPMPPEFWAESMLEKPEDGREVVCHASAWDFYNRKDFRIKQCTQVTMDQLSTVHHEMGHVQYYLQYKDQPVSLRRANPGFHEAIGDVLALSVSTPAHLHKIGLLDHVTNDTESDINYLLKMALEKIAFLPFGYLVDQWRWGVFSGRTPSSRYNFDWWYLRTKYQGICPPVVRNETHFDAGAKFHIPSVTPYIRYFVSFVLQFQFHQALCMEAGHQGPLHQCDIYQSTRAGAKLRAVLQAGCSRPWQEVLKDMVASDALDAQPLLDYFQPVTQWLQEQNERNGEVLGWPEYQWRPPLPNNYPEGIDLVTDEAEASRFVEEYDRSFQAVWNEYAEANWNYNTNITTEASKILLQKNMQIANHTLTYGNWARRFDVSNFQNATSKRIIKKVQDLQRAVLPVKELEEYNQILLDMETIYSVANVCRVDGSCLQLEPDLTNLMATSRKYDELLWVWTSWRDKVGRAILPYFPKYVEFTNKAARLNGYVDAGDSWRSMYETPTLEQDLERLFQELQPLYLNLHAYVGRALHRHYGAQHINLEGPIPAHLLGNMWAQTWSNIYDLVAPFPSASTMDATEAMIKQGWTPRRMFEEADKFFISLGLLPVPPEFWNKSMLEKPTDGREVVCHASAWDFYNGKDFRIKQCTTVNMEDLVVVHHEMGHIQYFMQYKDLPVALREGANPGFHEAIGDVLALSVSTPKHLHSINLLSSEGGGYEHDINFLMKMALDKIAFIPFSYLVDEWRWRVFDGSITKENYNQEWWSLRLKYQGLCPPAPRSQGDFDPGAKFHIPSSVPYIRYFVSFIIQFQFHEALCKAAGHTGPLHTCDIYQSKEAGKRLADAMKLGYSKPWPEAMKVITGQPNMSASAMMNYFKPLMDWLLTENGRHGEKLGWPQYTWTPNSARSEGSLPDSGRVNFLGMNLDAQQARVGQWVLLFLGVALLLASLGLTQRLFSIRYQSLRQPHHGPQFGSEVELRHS
Procedure: The experiment was conducted in accordance with a modification of the method described by Cushman et al. (Biochemical Pharmacology, Vol. 20, pp. 1637, 1971). Thus, using hippuryl-L-histidyl-L-leucine (HHL) as the substrate, the ACE inhibitory activity was determined in terms of percent inhibition on the amount of hippuric acid produced by ACE when the compound of the present invention was added. A solution of the compound of the present invention in 0.02 to 5% dimethylsulfoxide-100 mM borate-HCl buffer solution (pH 8.3, containing 300 mM sodium chloride) was added to 100 μl of ACE (protein concentration, 20 mg/ml) and 100 μl of 1.25 mM HHL. In this experiment, a borate-HCl buffer solution containing dimethylsulfoxide at a concentration equal to that of the test solution was used as a control. After warming the solution at 37° C. for 1 hour, 150 μl of 1N hydrochloric acid was added to the solution to terminate the reaction. After 0.8 ml of ethyl acetate was added, the solution was centrifuged at 11,500 rpm for 2 minutes. A 0.5 ml aliquot was separated from the ethyl acetate layer and dried at a temperature of not more than 40° C. under nitrogen gas streams. The residue was mixed thoroughly with 4.5 ml of distilled water, and the mixture was subjected to colorimetry at a wavelength of 228 nm.

[2] = tested on: hypertensive reaction by angiotensin I; assay: Effect against hypertensive activity of angiotensin I in rats; type: in vivo; conditions: 300 μg/kg i.v., rat, corrected by angiotensin II response
Procedure: Male rats (Sprague-Awley) weighing 300 to 400 g which were fed under free access to drinking water and feed were used as experimental animals. The rats were anesthetized with intraperitoneal administration of pentobarbital sodium (50 mg/kg) on the day before the test day, and a polyethylene tube was inserted into each of the femoral artery for measurement of blood pressure and the femoral vein for injection of angiotensin I and II. And the tubes were fixed.
On the test day, an average blood pressure in the control phase was measured by an electric hemodynamometer (MPU-0.5-290-0-III model, manufactured by NEC-Sanei, Japan) and recorded by a polygraph (NEC-Sanei, Tupe 365, or Nippon Kohden Type RM-45), and thereafter, angiotensin I and then angiotensin II were injected through the femoral vein at a dose of 300 ng/kg and 100 ng/kg, respectively, to measure the hypertensive activity. Then, 300 μg/kg of the compound of the present invention was administered intravenously as an isotonic saline solution, and 5, 10, 30, 60, 90 and 120 minutes after the administration, angiotensin I and II were injected repeatedly to trace hypertensive reactions. In calculating the percent inhibition to the hypertensive activity of angiotensin I, the percent inhibitory value was corrected based on the variation with time in the hypertensive reaction by angiotensin II.

[3] = 5 min. after the administration
[4] = 10 min. after the administration
[5] = 30 min. after the administration
[6] = 60 min. after the administration
[7] = 90 min. after the administration
[8] = 120 min. after the administration

Compound	inhibition at 0.1 µM [1] [%]	Inhibition against hypertensive reaction by angiotension I, % [2, 3] [%]	Inhibition against hypertensive reaction by angiotension I, % [2, 4] [%]	Inhibition against hypertensive reaction by angiotension I, % [2, 5] [%]	Inhibition against hypertensive reaction by angiotension I, % [2, 6] [%]	Inhibition against hypertensive reaction by angiotension I, % [2, 7] [%]	Inhibition against hypertensive reaction by angiotension I, % [2, 8] [%]
O=C(O)CN1C(=O)[C@@H](N[C@@H](CCC2CCOCC2)C(=O)O)CSc2ccccc21 [Example 74]	94	–	–	–	–	–	–
O=C(O)CN1C(=O)[C@@H](N[C@@H](CCC2CCSCC2)C(=O)O)CSc2ccccc21 [Example 75]	89	–	–	–	–	–	–
O=C(O)CN1C(=O)[C@@H](N[C@@H](CCCCN2CCCCC2)C(=O)O)CSc2ccccc21 [Example 82, 3(R)-[1(S)-carboxy-5-piperidinopentyl]amino-4-oxo-2,3,4,5-tetrahydro-1,5-benzothiazepine-5-acetic acid]	92	–	–	–	–	–	–
CCOC(=O)C(CCCC1CCNCC1)NC1CSc2ccccc2N(CC(=O)O)C1=O [Example 90, 3(R)-[1(S)-ethoxycarbonyl-4-(4-piperidyl)butyl]-amino-4-oxo-2,3,4,5-tetrahydro-1,5-berzothiazepine-5-acetic acid.dihydrobromide]	–	100	100	100	90	67	62

Continued, in another order:

inhibition at 0.1 µM [1] [%]	Compound	Inhibition against hypertensive reaction by angiotension I, % [2, 3] [%]	Inhibition against hypertensive reaction by angiotension I, % [2, 4] [%]	Inhibition against hypertensive reaction by angiotension I, % [2, 5] [%]	Inhibition against hypertensive reaction by angiotension I, % [2, 6] [%]	Inhibition against hypertensive reaction by angiotension I, % [2, 7] [%]	Inhibition against hypertensive reaction by angiotension I, % [2, 8] [%]
92	O=C(O)CN1C(=O)[C@@H](N[C@@H](CCC2CCNCC2)C(=O)O)CSc2ccccc21 [Example 73, 3(R)-[1(S)-carboxy-3-(4-piperidyl)propyl]amino-4-oxo-2,3,4,5-tetrahydro-1,5-benzothiazepine-5-acetic acid]	–	–	–	–	–	–
92	O=C(O)CN1C(=O)[C@@H](N[C@@H](CCCC2CCNCC2)C(=O)O)CSc2ccccc21 [Example 91, 3(R)-[1(S)-carboxy-4-(4-piperidyl)butyl]amino-4-oxo-2,3,4,5-tetrahydro-1,5-benzothiazepine-5-acetic acid]	–	–	–	–	–	–
98	O=C(O)CN1C(=O)[C@@H](N[C@@H](CCCCC2CCNCC2)C(=O)O)CSc2ccccc21 [Example 95, 3(R)-[1(S)-carboxy-5-(4-piperidyl)pentyl]amino-4-oxo-2,3,4,5-tetrahydro-1,5-benzothiazepine-5-acetic acid]	96	94	99	89	96	91
98	O=C(O)CN1C(=O)[C@@H](N[C@@H](CCCCCC2CCNCC2)C(=O)O)CSc2ccccc21 [Example 98, 3(R)-[1(S)-carboxy-6-(4-piperidyl)hexyl]amino-4-oxo-2,3,4,5-tetrahydro-1,5-benzothiazepine-5-acetic acid]	100	100	100	100	95	79
98	O=C(O)CN1C(=O)[C@@H](N[C@@H](CCCCCCC2CCNCC2)C(=O)O)CSc2ccccc21 [Example 100, 3(R)-[1(S)-carboxy-7-(4-piperidyl)heptyl]amino-4-oxo-2,3,4,5-tetrahydro-1,5-benzothiazepine-5-acetic acid]	–	–	–	–	–	–
